Laboratory results as given in the OligoGym collection.
“And” between values parts separate entries of the source, which are not always exact repeats. Identical values can stand only once. After the bases stand the sugars from the 5' end (letter, count) and the backbone: PS all phosphorothioate, else s phosphorothioate and o phosphodiester by linkage. Methylation of C is not given here. e = 2'-O-(2-methoxyethyl) (MOE); k = constrained ethyl (cEt); d = 2'-deoxy (DNA)

What follows are sequences tested against MALAT1. Conditions: ASO, A431, 0.005 µM.

Going from AAAAAGTAGTTCTTCG (sugars k3 d10 k3, PS) to AAAAGGCTCGATGGAA (sugars k3 d10 k3, PS), the target mRNA inhibition falls from 16% to 11%.

Compared with AAACCGATTATGGATC (sugars k3 d10 k3, PS), AAACTTGCTTACACAC (sugars k3 d10 k3, PS) is higher in target mRNA inhibition: 3% for the first, 25% for the second.

Going from AAAGAGTAACTACCAG (sugars k3 d10 k3, PS) to AAAGATATTGTGCTGT (sugars k3 d10 k3, PS), the target mRNA inhibition falls from 22% to 11%.

Going from AAAGTGGTTGCCCGCT (sugars k3 d10 k3, PS) to AAATCGCACTGGCTCC (sugars k3 d10 k3, PS), the target mRNA inhibition falls from 15% to 6%.

Compared with AAATTTTTCTACCGTT (sugars k3 d10 k3, PS), AACAGTACTGCATTTA (sugars k3 d10 k3, PS) is higher in target mRNA inhibition: -3% for the first, 36% for the second.

Compared with AACATATTTTGCCCCC (sugars k3 d10 k3, PS), AACATTTGGCCTACTC (sugars k3 d10 k3, PS) is higher in target mRNA inhibition: 22% for the first, 42% for the second.

First: AACCGATTATGGATCA (sugars k3 d10 k3, PS)
Second: AACCGTAACAGGCCAC (sugars k3 d10 k3, PS)
The target mRNA inhibition of the first is lower: 49% for the first, 50% for the second.

First: AACCTTCATGACCCTA (sugars k3 d10 k3, PS)
Second: AACGAAGAGATACCTG (sugars k3 d10 k3, PS)
The target mRNA inhibition of the first is higher: 20% for the first, 12% for the second.

Compared with AACTAAATCATTGGGA (sugars k3 d10 k3, PS), AACTCCAAGAACTAGC (sugars k3 d10 k3, PS) is higher in target mRNA inhibition: -1% for the first, 30% for the second.

Compared with AACTCCACAGCTCTTA (sugars k3 d10 k3, PS), AAGACCTCGACACCAT (sugars k3 d10 k3, PS) is higher in target mRNA inhibition: 41% for the first, 44% for the second.

Compared with AAGAGTAACTACCAGC (sugars k3 d10 k3, PS), AAGATCGCCTTCAAAT (sugars k3 d10 k3, PS) is higher in target mRNA inhibition: 6% for the first, 49% for the second.

Going from AAGATGCTAGCTTGGC (sugars k3 d10 k3, PS) to AAGCCAAGCCGCCTGC (sugars k3 d10 k3, PS), the target mRNA inhibition rises from 24% to 29%.

First: AAGCGAATGGCTTTGT (sugars k3 d10 k3, PS)
Second: AAGCGAGTTCAAGTGG (sugars k3 d10 k3, PS)
The target mRNA inhibition of the first is lower: 6% for the first, 15% for the second.

AAGCACCGCTTGAGAT (sugars k3 d10 k3, PS) was tested, and the target mRNA inhibition was 8% and 13%.

What follows are sequences tested against IRF4. Conditions: ASO, MM.1R, 0.0625 µM.

TGTATTACTCTTAGGC (sugars k3 d10 k3, PS) was tested, and the target mRNA inhibition was 7%.

Same assay, conditions: ASO, MM.1R, 0.074 µM

TTCCAGGTCATTTGAC (sugars k3 d10 k3, PS) was tested, and the target mRNA inhibition was 2%.

Same assay, conditions: ASO, MM.1R, 0.222 µM

TTCCAGGTCATTTGAC (sugars k3 d10 k3, PS) was tested, and the target mRNA inhibition was 3%.

Same assay, conditions: ASO, MM.1R, 0.25 µM

Work on TGTATTACTCTTAGGC (sugars k3 d10 k3, PS) yielded a target mRNA inhibition of 21%.

Same assay, conditions: ASO, MM.1R, 0.666 µM

For TTCCAGGTCATTTGAC (sugars k3 d10 k3, PS), the target mRNA inhibition was 9%.

Same assay, conditions: ASO, MM.1R, 1 µM

Going from TGTACAGGACAGGTAA (sugars k3 d10 k3, PS) to “TGTAGTATGAGAAACG (sugars e1 k2 d9 k2 e2, PS)”, the target mRNA inhibition falls from 8% to 6%.

Going from “TGTAGTATGAGAAACG (sugars k3 d9 k3 e1, PS)” to “TGTAGTATGAGAAACG (sugars kkdddddddddkdkdk, PS)”, the target mRNA inhibition falls from 33% to -6%.

Compared with “TGTGATAGCTGAGCTG (sugars k2 d9 e3 k2, PS)”, TGTGATAGCTGAGCTG (sugars k3 d10 k3, PS) is higher in target mRNA inhibition: 12% for the first, 47% for the second.

First: TGTGATAGCTGAGCTG (sugars kddddddddddkekek, PS)
Second: TGTGGTTTCACATGAT (sugars k3 d10 k3, PS)
The target mRNA inhibition of the first is lower: -2% for the first, 21% for the second.

Going from TGTTAGGTGACCCAAA (sugars k3 d10 k3, PS) to TGTTCAGAAACCCTCA (sugars k3 d10 k3, PS), the target mRNA inhibition falls from 2% to -15%.

First: TGTTTTAAGAGGCGAC (sugars k3 d10 k3, PS)
Second: TTAAAGGGTAAGCACT (sugars k3 d10 k3, PS)
The target mRNA inhibition of the first is higher: 3% for the first, -18% for the second.

Compared with TTACTAATTCCATAGA (sugars k3 d10 k3, PS), “TTATATACTGGTTGGT (sugars k2 d9 e3 k2, PS)” is higher in target mRNA inhibition: 3% for the first, 40% for the second.

With “TTATATACTGGTTGGT (sugars kdddddddddkekeke, PS)” the target mRNA inhibition was 20%.

For TGTATTACTCTTAGGC (sugars k3 d10 k3, PS), the target mRNA inhibition was 65% and 41%.
“TGTGCTTGCCAAGCCT (sugars k2 d9 e3 k2, PS)” was tested, and the target mRNA inhibition was 45% and 40%.
TGTGCTTGCCAAGCCT (sugars k3 d10 k3, PS) was tested, and the target mRNA inhibition was 38% and 49%.
For “TGTGCTTGCCAAGCCT (sugars kkdddddddddekeke, PS)”, the target mRNA inhibition was 21% and 1%.
With “TGTTACCGATGCTTCA (sugars kdddddddddkekeke, PS)” the target mRNA inhibition was 10% and 13%.
TTACCGATGCTTCAAG (sugars k3 d10 k3, PS) was tested, and the target mRNA inhibition was 16% and 19%.
With TTAGGCACATCAATGT (sugars k3 d10 k3, PS) the target mRNA inhibition was 12% and 17%.
“TTATGTTAGCCAATTC (sugars k2 d9 e3 k2, PS)” was tested, and the target mRNA inhibition was 14% and 9%.
TTATGTTAGCCAATTC (sugars k3 d10 k3, PS) was tested, and the target mRNA inhibition was 9% and 22%.
In the case of “TTCATGTAAAGTCTGC (sugars kddddddddddkekek, PS)”, the target mRNA inhibition is reported as 2% and -18%.
